In article PMC6957243 (Bioorganic & medicinal chemistry letters, 2014):

Legend:
[1] = biological target: T1, rat TRPV1 heterologously expressed in Chinese hamster ovary (CHO) cells (Rattus norvegicus, UniProt O35433); test: binding competition assay with [3H]RTX; conditions: respectively; for increase in binding affinity: 19 and 20 compared to (R)-5a and (S)-5a; for increases in binding affinity: 24 and 28 compared to 5b and 5c
[2] = biological target: T1, rat TRPV1 heterologously expressed in Chinese hamster ovary (CHO) cells; test: functional 45Ca2+ uptake assay, antagonism of capsaicin; type: cell-based; conditions: 24 and 28 compared to 5b and 5c, respectively

T1 sequence (O35433 whole entry): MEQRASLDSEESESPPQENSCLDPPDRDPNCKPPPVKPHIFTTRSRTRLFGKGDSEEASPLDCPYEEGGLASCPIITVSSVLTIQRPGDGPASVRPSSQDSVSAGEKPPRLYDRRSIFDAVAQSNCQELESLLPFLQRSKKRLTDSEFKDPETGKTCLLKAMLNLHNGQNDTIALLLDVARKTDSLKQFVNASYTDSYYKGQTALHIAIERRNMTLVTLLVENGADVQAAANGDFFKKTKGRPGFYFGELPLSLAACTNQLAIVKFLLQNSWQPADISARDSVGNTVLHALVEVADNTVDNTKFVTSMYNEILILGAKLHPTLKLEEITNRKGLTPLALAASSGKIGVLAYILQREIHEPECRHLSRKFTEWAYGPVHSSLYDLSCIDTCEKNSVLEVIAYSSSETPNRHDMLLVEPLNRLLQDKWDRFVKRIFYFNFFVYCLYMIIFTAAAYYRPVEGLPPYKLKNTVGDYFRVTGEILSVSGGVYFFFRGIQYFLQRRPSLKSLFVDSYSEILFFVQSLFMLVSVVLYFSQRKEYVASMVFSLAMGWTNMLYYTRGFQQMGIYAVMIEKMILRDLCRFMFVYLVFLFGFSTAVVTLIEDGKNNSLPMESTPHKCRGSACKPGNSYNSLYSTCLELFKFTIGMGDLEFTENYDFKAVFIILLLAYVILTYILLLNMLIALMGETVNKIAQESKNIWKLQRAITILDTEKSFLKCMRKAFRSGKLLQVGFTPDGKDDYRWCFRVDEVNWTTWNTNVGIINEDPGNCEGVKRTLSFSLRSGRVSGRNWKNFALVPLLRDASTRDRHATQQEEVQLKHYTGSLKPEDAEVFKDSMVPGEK

| Compound | increase in binding affinity [1] [fold] | increases in antagonism [2] [fold] | increases in binding affinity [1] [fold] |
| --- | --- | --- | --- |
| C[C@@H](NC(=S)NC[C@H](COC(=O)C(C)(C)C)Cc1ccccc1)c1ccc(NS(C)(=O)=O)cc1 [compound 19] | ~10 |  |  |
| C[C@@H](NC(=S)NCC(COC(=O)C(C)(C)C)Cc1ccc(C(C)(C)C)cc1)c1ccc(NS(C)(=O)=O)cc1 (stereo partly drawn) [compound 28] |  | 4 | 6 |
| Cc1ccc(CC(CNC(=S)N[C@H](C)c2ccc(NS(C)(=O)=O)cc2)COC(=O)C(C)(C)C)cc1C (stereo partly drawn) [compound 24] |  | 10 | 5 |
| C[C@@H](NC(=S)NC[C@@H](COC(=O)C(C)(C)C)Cc1ccccc1)c1ccc(NS(C)(=O)=O)cc1 [compound 20] | ~10 |  |  |
